{"source": "patent US20230138400A1", "about": "“METHODS AND PHARMACEUTICAL COMPOSITIONS FOR REPROGRAMING IMMUNE ENVIRONMENT IN A SUBJECT IN NEED THEREOF” (INSERM (INSTITUT NATIONAL DE LA SANTE ET DE LA RECHERCHE …, priority 2016, published 2023)", "key": {"[1]": {"tested_on": "naive CD4 T cells isolated from the spleen of C57BL/6 mice", "test": "Polarization of naive CD4 T cells (Th1, Th2, Treg, Th17 conditions) in presence of DDA, flow cytometry", "format": "cell-based, mouse", "procedure": "FIGS. 1A-E. Sorted naive CD4 T cells were isolated from the spleen of C57BL/6 mice and activated in the indicated Th1, Th2, Treg, or Th17 polarizing conditions as described in the “Materials and methods” section”. These cells were cultured in the presence of increasing concentrations of DDA. After 96 hours, the percentage of (A) Th1: CD4+Tbet+IFNg+, (B) Th2: CD4+GATA3+[…], (C) Treg: CD4+Foxp3+IL10+ and (D) Th17: CD4+RORgt+[…], cells was measured by flow cytometry. (E) Sorted naive CD8 T cells were isolated from the spleen of the C57BL/6 mice and activated with anti-CD3, anti-CD28 and recombinant IL2. After 96 hours, the percentage of cytotoxic T CD8+GranzymB+IFNg+ cells was measured by flow cytometry.\nFIGS. 2A-E. Sorted naive CD4 T cells isolated from the spleen of C57BL/6 mice were activated in Th1, Th2, Treg, or Th17 polarizing conditions as indicated in the “Materials and methods” section”. After 96 h, increasing concentrations of DDA was added on polarized CD4 T cells for 24 h. Then the percentage of (A) CD4+Tbet+IFNg+, (B) CD4+GATA3+[…], (C) CD4+Foxp3+IL10+ and (D) CD4+RORgt+[…] cells was measured by flow cytometry. (E) Sorted naïve CD8 T cells were isolated from the spleen of the C57BL/6 mice and activated with anti-CD3, anti-CD28 and recombinant IL2. After 96 h, increasing concentrations of DDA was added on activated CD8 T cells for 24 h. Then the percentage of cytotoxic T CD8+GranzymB+IFNg+ cells was measured by flow cytometry.\nCells isolation. Single-cells leukocyte suspensions were obtained from spleens of C57BL/6 mice. Naive CD4 or CD8 T cells are isolated by depletion of memory CD4 or CD8 T cells and non-CD4 or non-CD8 T cells according the manufacturer's protocol from Miltenyi kit (Miltenyi biotec). Purities of CD4+CD44l^ow CD62L^high or CD8+CD44l^ow CD62L^high T cells after isolation were >98%\nImmune cell culture. Isolated CD4+ or CD8+ T cells were cultures in 96-well flat bottom plates (0.25×10^6 cells per wells) in 0.25 ml of complete RPMI 1640 media (10% FBS, 1% penicillin/Streptomycin, 1% sodium pyruvate, 1% HEPES and 50 μM b-mercaptoethanol) in the presence of 10 μg/ml plate-bound anti-mouse CD3 (2C11) and 2 μg/ml soluble α-CD28 (LEAF) in addition to 50 ng/ml of recombinant IL-2 (e-bioscience). DDA (synthesized by Affichem) diluted in the solvent vehicle was added at increasing concentration (0-1-10-100 and 1000 nM). Cells were cultured in polarizing Th1 (20 ng/ml of recombinant […] and 10 μg/ml of anti-IL4), Th2 (50 ng/ml of recombinant IL-4, 10 μg/ml of anti-IFNg), Th17 (10 ng/ml of recombinant TGF-b, 100 ng/ml of recombinant IL-6, 10 μg/ml of anti-IFN-g and 10 μg/ml of anti-IL4) or Treg (10 ng/ml of recombinant TGF-b, 10 μg/ml of anti-IFNg and 10 μg/ml of anti-IL4) conditions. All recombinant cytokines were purchased from Peprotech and antibodies were purchased from eBioscience. After 5 days of culture, cells were collected and analyzed by flow cytometry. To investigate the impact of DDA on polarization of CD4 or CD8 naive T cells, DDA or the solvent vehicle was added at the beginning of culture at Day 0 or at Day 4 and cells was analyzed at day 5 by flow cytometry."}, "E0771 tumor": {"tested_on": "E0771 tumor", "test": "Infiltration of immune cells inside E0771 tumor, flow cytometry", "format": "in vivo, mouse", "settings": "0.37 μg/kg DDA, day 15 post treatment", "text": "FIGS. 5A-D. Infiltration of immune cells inside E0771 tumor. (A-D) These bar graphs represent the ratio between (A) Th1 (CD4+ Tbet+) and Treg (CD4+ Foxp3+), (B) CTL cells (CD8+ Granzym B+) on No CTL cells (CD8+ Granzym b−), (C) macrophage type M1 (CD14+ CCR7+ IFNg+) and type M2 (CD14+ CD206+ IL10+) (D) dendritic cells (CD11c+) and myeloid derived suppressive cells (MDSC: CD11b+CD11clow, LY6C+ly6Gint) infiltrated inside the tumor. The tumors were removed at day 15 post treatment with DDA at 0.37 μg/kg (b) or with the solvent vehicle (control) (a). To observe the cytotoxic CD8 T cells, the tumor suspension was prealably stimulated 2 h in vitro with a cocktail of PMA (50 ng/ml), ionomycine (500 ng/ml) and golgistop (concentration from manufacture BD Pharmagen), then the cells were stained with specific antibodies.\nTumor dissociation: Freshly excised tumors were trimmed of skin, fat, and necrotic tissue and minced in cold Hanks' medium. The minced tumor pieces were placed in an enzyme solution consisting of collagenase type D at 1 mg/ml and DNase type 1 at 20 μg/ml in Hanks' medium at 37° C. After 30 min of dissociation, the cell suspension was collected, washed with Hank's medium, and then suspended in PBS 1×, 0.5% BSA, 0.02% azide and […] EDTA (Facs medium).\nAnalysis of immune cells by flow cytometry. Immune cells from the tumors were stained with the indicated fluorescent-labelled antibodies: anti mouse α-CD4, α-CD8, α-T-bet, α-Foxp3, α-granzyme B, α-PD-1, α-CD44, α-Ly6C, α-Ly6G, α-CD11b, α-CD11c, α-CD206, α-CD86, α-IL10, α-IL-6, α-IL-4 purchased from eBioscience or Biolegend. Intracellular staining for T-bet, Foxp3, IFNg, Granzyme B, IL-10, IL-4 and IL-6 was performed according the manufacturer's protocol from Biolegend. To observe the cytotoxic CD8 T cells, the tumor suspension was prealably stimulated 2 h in vitro with a cocktail of PMA (50 ng/ml), ionomycine (500 ng/ml) and golgistop (concentration from manufacture BD Pharmingen), then the cells were stained with specific antibodies. To set the gates, flow cytometry dot plots were based on comparison with isotype control. Flow cytometry measurements of single-cells suspension were performed on a Fortessa 20X (BD pharmingen) and data were analyzed using FlowJo software."}, "[2]": {"tested_on": "tumor cells implanted in mice", "settings": "de Medina et al., Nat Commun. 2013; cited from earlier work"}}, "data": [{"smiles": "CC(C)CCCC(C)[C@H]1CCC2C3C[C@@H](NCCc4cnc[nH]4)[C@@]4(O)C[C@@H](O)CC[C@]4(C)C3CC[C@@]21C", "note": "(some centres unmarked) [DDA, 5a-hydroxy-6b-[2-(1H-imidazol-4-yl)ethylamino]cholestan-3b-ol]", "values": [{"measurement": "concentration from which differentiation of Th0 into Th1 is increased", "setting": "[1]; DDA added at day 0, Th1 polarizing conditions, 96 h, CD4+Tbet+IFNg+", "result": "≥ 1", "unit": "nM"}, {"measurement": "Th2 differentiation", "setting": "[1]; DDA added at day 0, Th2 polarizing conditions", "result": "no effect"}, {"measurement": "concentration from which differentiation of Th0 into Th17 is increased", "setting": "[1]; DDA added at day 0, Th17 polarizing conditions, 96 h", "result": "≥ 100", "unit": "nM"}, {"measurement": "Treg differentiation", "setting": "[1]; DDA added at day 0, Treg polarizing conditions", "result": "no effect"}, {"measurement": "concentration from which differentiation of Th0 into Th1 is increased", "setting": "[1]; DDA added at day 4 for 24 h", "result": "≥ 1", "unit": "nM"}, {"measurement": "differentiation into Th2", "setting": "[1]; DDA added at day 4 for 24 h", "result": "no effect"}, {"measurement": "differentiation into Th17", "setting": "[1]; DDA added at day 4 for 24 h", "result": "no effect"}, {"measurement": "differentiation of Th0 into Treg", "setting": "[1]; DDA added at day 4 for 24 h (FIG. 2)", "result": "inhibits"}, {"measurement": "activated phenotype of CD4 T cells (CD44 at their surface)", "setting": "[1]; day 4, data not shown", "result": "upregulation of CD44"}, {"measurement": "infiltration into the tumor of inactivated CD8 (No CTL)", "setting": "E0771 tumor", "result": "decreases"}, {"measurement": "infiltration into the tumor of macrophage type M2", "setting": "E0771 tumor", "result": "decreases"}, {"measurement": "infiltration into the tumor of myeloid derived suppressive cells (MDSC)", "setting": "E0771 tumor", "result": "decreases"}, {"measurement": "infiltration into the tumor of regulatory CD4 Treg cells", "setting": "E0771 tumor", "result": "decreases"}, {"measurement": "infiltration of CD4 Th1 cells inside the tumor", "setting": "E0771 tumor", "result": "increases"}, {"measurement": "infiltration of activated CD8 (CTL) inside the tumor", "setting": "E0771 tumor", "result": "increases"}, {"measurement": "infiltration of dendritic cells (DC: CD11c+) inside the tumor", "setting": "E0771 tumor", "result": "increases"}, {"measurement": "infiltration of macrophage type M1 inside the tumor", "setting": "E0771 tumor", "result": "increases"}, {"measurement": "animal survival", "setting": "[2]", "result": "improves animal survival"}, {"measurement": "growth of tumor cells implanted in mice", "setting": "[2]", "result": "control the growth"}, {"measurement": "infiltration of CD3+ T lymphocytes and CD11c+ dendritic cells", "setting": "[2]", "result": "increased infiltration"}]}]}
